Assay [1] deals with protease activity in feces. The assay is described as follows: General Fecal Enzymes Method (casein-resorufin cleavage). In kind it is biochemical, infant. As to conditions: fecal suspension, casein-resorufin substrate, pH 7.8, 37° C. for 60 minutes. The text has this:
(§1) Pooled infant feces (at least five different samples) are collected in a manner to keep them free of urine and contamination and mixed with water to obtain a weight by weight (w/w) mixture (e.g., 1:50 w/w). This mixture is then mixed thoroughly to obtain a homogeneous suspension by homogenization or sonication. […] (Also, to ensure complete linearity the final absorbance should never exceed 1.5 OD405 units). If the activity of the pooled infant feces is outside this range, it is not possible to accurately determine IC50 values for putative protease inhibitors. However, the range of enzyme activity may be adjusted by increasing or decreasing the dilution factor accordingly for each enzyme. If this is not possible, a different group of subjects should be used to obtain the sample pool.
The general method described above for obtaining a sample of feces suitable for use in Specific Fecal Enzyme Methods can be easily adapted by one skilled in the art to obtain appropriate samples of feces suitable for use in the General Fecal Enzymes Method listed below without undue experimentation.
To test the efficacy of protease inhibitors against the protease activity in feces, 50 μL of inhibitor and 50 μL of fecal suspension are added to a 1.5 mL microcentrifuge tube. The microcentrifuge tube is mixed by inversion and incubated at 25° C. for 45 minutes. Then, 50 μL of protease buffer (200 mM TRIS buffer containing 20 mM CaCl2, pH 7.8) is added to the microcentrifuge tube. The microcentrifuge tube is again mixed by inversion and incubated at 25° C. for 45 minutes. […] The microcentrifuge tube is again mixed by inversion and incubated at 37° C. for 60 minutes for the substrate cleavage reaction to take place. Then, 480 μL of trichloroacetic acid (5% w/v) is added to stop the reaction and precipitate any unreacted casein-resorufin. The microcentrifuge tube is mixed by inversion incubated at 37° C. for 15 minutes. […] Then, 400 μL of the supernatant is added to 600 μL of assay buffer (0.5 M TRIS, pH 8.8) in a cuvette. […] The same procedure is repeated without the putative inhibitor. […] Before the start of the reaction, A and Ai are nearly zero. […] The rates, vi and v, and the inhibitor concentration [I] are used to calculate IC50 according to the equation expressed above.

For assay [2], the target named is LAP activity in feces. The assay is described as follows: Fecal LAP Activity (Specific Fecal Enzyme Method). In kind it is biochemical. The following applies: pooled infant fecal suspension, pH 7.2, 25° C.; read-out: IC50 Specific Fecal Enzyme Methods LAP.
Text: (§2) The following is a general description of a method for obtaining a sample of feces suitable for use in Fecal Protease Methods. However, one skilled in the art will be able to adapt the method to obtain appropriate samples of feces suitable for use in any of the Specific Fecal Protease Methods listed below (i.e., lipase, urease, and amylase) without undue experimentation.
as §1
To test the efficacy of protease inhibitors against LAP activity in feces, inhibitor and LAP buffer (50 mM sodium phosphate, pH 7.2) are added in a cuvette to obtain a final volume of 0.95 mL. To this mixture, 0.03 mL of substrate (6 mM L-Leucine-p-nitroanilide) is added to the cuvette. The cuvette is mixed by inversion and incubated at 25° C. for 5 minutes. A volume of 0.02 mL of fecal suspension is added to the cuvette, mixed and the absorbance at 405 nm minus the absorbance at 490 nm measured over 5 minutes at 25° C. The rate of substrate cleavage in the presence of inhibitor (vi) is the slope of a plot relating the excess absorbance (i.e., the absorbance at 405 nm minus the absorbance at 490 nm) versus time. The same procedure is repeated without the putative inhibitor. The rate of substrate cleavage in the absence of inhibitor (v) is the slope of a plot relating the excess absorbance versus time. The rates, vi and v, and the inhibitor concentration [I] are used to calculate IC50 according to the equation expressed above.

The target of assay [3] is trypsin activity in feces. The assay is described as follows: Fecal Trypsin Activity (Specific Fecal Enzyme Method). In kind it is biochemical. The following applies: pooled infant fecal suspension, pH 8.2, 25° C.; read-out: IC50 Specific Fecal Enzyme Methods Trypsin.
Text: as §2, §1
To test the efficacy of protease inhibitors against the trypsin activity in feces, inhibitor and trypsin buffer (50 mM TRIS, 20 mM CaCl2, pH 8.2) are added in a cuvette to obtain a final volume of 0.8 mL. To this mixture, 0.1 mL of substrate (3 mM Cbz-arginine-p-nitroanilide) is added to the cuvette. The cuvette is mixed by inversion and incubated at 25° C. for 5 minutes. A volume of 0.1 mL of fecal suspension is added to the cuvette, mixed and the absorbance at 405 nm minus the absorbance at 490 nm are measured over 5 minutes at 25° C. (The absorbance at 490 nm is a correction factor for the background absorbance due to the particulate fecal material, i.e., “interference”). The rate of substrate cleavage in the presence of inhibitor (vi) is the slope of a plot relating the excess absorbance (i.e., the absorbance at 405 nm minus the absorbance at 490 nm) versus time. The same procedure is repeated without the putative inhibitor. The rate of substrate cleavage in the absence of inhibitor (v) is the slope of a plot relating the excess absorbance versus time. The rates, vi and v, and the inhibitor concentration [I] are used to calculate IC50 according to the equation expressed above.

Assay [4] has as its target chymotrypsin activity in feces. The assay is described as follows: Fecal Chymotrypsin Activity (Specific Fecal Enzyme Method). In kind it is biochemical. As to conditions: pooled infant fecal suspension, pH 7.6, 25° C.; read-out: IC50 Specific Fecal Enzyme Methods Chymotryp. The text has this:
The following is a general description of a method for obtaining a sample of feces suitable for use in Fecal Protease Methods. However, one skilled in the art will be able to adapt the method to obtain appropriate samples of feces suitable for use in any of the Specific Fecal Protease Methods listed below (i.e., lipase, urease, and amylase) without undue experimentation. […] Pooled infant feces (at least five different samples) are collected in a manner to keep them free of urine and contamination and mixed with water to obtain a weight by weight (w/w) mixture (e.g., 1:50 w/w). This mixture is then mixed thoroughly to obtain a homogeneous suspension by homogenization or sonication. […] (Also, to ensure complete linearity the final absorbance should never exceed 1.5 OD405 units). If the activity of the pooled infant feces is outside this range, it is not possible to accurately determine IC50 values for putative protease inhibitors. However, the range of enzyme activity may be adjusted by increasing or decreasing the dilution factor accordingly for each enzyme. If this is not possible, a different group of subjects should be used to obtain the sample pool. […] The cuvette is mixed by inversion and incubated at 25° C. for 5 minutes. […] The rate of substrate cleavage in the presence of inhibitor (vi) is the slope of a plot relating the excess absorbance (i.e., the absorbance at 405 nm minus the absorbance at 490 nm) versus time. The same procedure is repeated without the putative inhibitor. The rate of substrate cleavage in the absence of inhibitor (v) is the slope of a plot relating the excess absorbance versus time. The rates, vi and v, and the inhibitor concentration [I] are used to calculate IC50 according to the equation expressed above.

Where a name gives a salt, the structure may show the parent alone.

By IC50 is commonly meant the concentration needed to halve the response being measured. With `NCCc1ccc(S(=O)(=O)F)cc1` [4-(2-aminoethyl)-benzenesulfonylfluoride hydrochloride], in assay [1], the concentration for half-maximal inhibition (IC50) came to 217 µM.
As for `O=C(O)CN(CCN(CC(=O)O)CC(=O)O)CC(=O)O` [EDTA, ethylenediamine tetraacetic acid], the results for the half-inhibitory concentration (IC50) in assay [2], in assay [3] and in assay [4] were above 3000 µM, 100 µM and 100 µM, respectively.

Source of the values: patent US6703536B2, “Disposable absorbent article having a skin care composition containing an enzyme inhibitor” (The Procter & Gamble Company, priority 1998, dated 2004).
